Reference: ChEMBL document CHEMBL1201862, “PubChem BioAssay data set” (2004)
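How tested: cells in 96-well plates exposed to compound for 48 hours at five concentrations. GI50 marks 50% less growth.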 Active and inactive are the calls of the source. Rule as the data show it: active = GI50 up to about 1.1 µM and inactive = higher. Where a SMILES comes first, the peptide text is derived from it.

What was measured:
Test in all cases: NCI anticancer screen, dose series, 48 h
[1] = test system: OVCAR-8
[2] = test system: SW-620
[3] = test system: HOP-62
[4] = test system: NCI-H522
[5] = test system: LOX IMVI
[6] = test system: SNB-19
[7] = test system: BT-549
[8] = test system: K562
[9] = test system: M14
[10] = test system: T47D
[11] = test system: SN12C
[12] = test system: SF-268
[13] = test system: SK-MEL-5
[14] = test system: CAKI-1
[15] = test system: 786-0
[16] = test system: SNB-75
[17] = test system: SK-MEL-28
[18] = test system: EKVX
[19] = test system: TK-10
[20] = test system: MDA-MB-435

Compound	GI50 [1]	GI50 [2]	GI50 [3]	GI50 [4]	GI50 [5]	GI50 [6]	GI50 [7]	GI50 [8]	GI50 [9]	GI50 [10]	GI50 [11]	GI50 [12]	GI50 [13]	GI50 [14]	GI50 [15]	GI50 [16]	GI50 [17]	GI50 [18]	GI50 [19]	GI50 [20]
COc1ccc(/C(=N/N=c2\[nH]c3ccccc3n2Cc2ccccc2)C(=O)O)cc1	21.8 µM (inactive)	27 µM (inactive)	10.5 µM (inactive)	8.65 µM (inactive)	6.89 µM (inactive)	25.7 µM (inactive)	25.1 µM (inactive)	22.7 µM (inactive)	14.5 µM (inactive)	14.7 µM (inactive)	5.96 µM (inactive)	7.5 µM (inactive)	15.5 µM (inactive)	16.7 µM (inactive)	5.12 µM (inactive)	18.3 µM (inactive)	23.8 µM (inactive)	31.3 µM (inactive)	35.3 µM (inactive)	21.1 µM (inactive)
CC(=O)NC(CS)C(=O)NC(CO)C(=O)NC(CO)C(=O)NC(Cc1c[nH]c2ccccc12)C(=O)N1CCCC1C(=O)NC(CO)C(=O)NC(Cc1c[nH]c2ccccc12)C(=O)NC(Cc1c[nH]cn1)C(=O)NC(CO)C(=O)NC(Cc1c[nH]c2ccccc12)C(=O)NCC(=O)NCC(=O)NC(CC(=O)O)C(=O)NC(CCC(N)=O)C(=O)NC(CCCCN)C(=O)NC(Cc1ccccc1)C(=O)NC(CCCNC(=N)N)C(=O)NC(CCCCN)C(N)=O (stereo not given) (Ac-CSSWPSWHSWGGDQKFRK-NH2; configuration not given here)	> 25 µM (inactive)	> 25 µM (inactive)	> 25 µM (inactive)	> 25 µM (inactive)	> 25 µM (inactive)	> 25 µM (inactive)	> 25 µM (inactive)	> 25 µM (inactive)	> 25 µM (inactive)	> 25 µM (inactive)	> 25 µM (inactive)	> 25 µM (inactive)	> 25 µM (inactive)	> 25 µM (inactive)	> 25 µM (inactive)	> 25 µM (inactive)	> 25 µM (inactive)	> 25 µM (inactive)	> 25 µM (inactive)	> 25 µM (inactive)
CC12CCC(=O)C=C1CCC1C2CCC2(C)C(C(=O)Cn3cnc4c(=S)nc[nH]c43)CCC12 (stereo not given)	27.5 µM (inactive)	76.2 µM (inactive)	18.2 µM (inactive)	23.4 µM (inactive)	24.3 µM (inactive)	23.6 µM (inactive)	28.4 µM (inactive)	48.3 µM (inactive)	27.5 µM (inactive)	9.23 µM (inactive)	67.8 µM (inactive)	38.3 µM (inactive)	30.6 µM (inactive)	34 µM (inactive)	27.2 µM (inactive)	15.5 µM (inactive)	> 100 µM (inactive)	41.5 µM (inactive)	36 µM (inactive)	24.7 µM (inactive)
COc1cc(/C=C2\CCc3cc(OC)c(OC)cc3C2=O)cc(OC)c1	9.02 µM (inactive)	6.19 µM (inactive)	7.94 µM (inactive)	5.93 µM (inactive)	6.3 µM (inactive)	> 28.6 µM (inactive)	10.4 µM (inactive)	3.03 µM (inactive)	5.47 µM (inactive)	5.9 µM (inactive)	5 µM (inactive)	41.2 µM (inactive)	3.87 µM (inactive)	8.67 µM (inactive)	4.66 µM (inactive)	21.3 µM (inactive)	15.8 µM (inactive)	24.3 µM (inactive)	24 µM (inactive)	1.99 µM (inactive)
CS(=O)(=O)N1CC(CCl)c2ccc(NO)cc21 (stereo not given)	12.9 µM (inactive)	12.6 µM (inactive)	17.7 µM (inactive)	4.17 µM (inactive)	13.3 µM (inactive)	22.5 µM (inactive)	12 µM (inactive)	2.88 µM (inactive)	16.2 µM (inactive)	21.9 µM (inactive)	15.3 µM (inactive)	5.22 µM (inactive)	12.3 µM (inactive)	12.6 µM (inactive)	13.4 µM (inactive)	1.77 µM (inactive)	19.1 µM (inactive)	16.7 µM (inactive)	21.3 µM (inactive)	16.6 µM (inactive)
Cn1/c(=N\N=C(\CNCCO)[C@@H](O)[C@@H]2OC(c3ccccc3)OC[C@H]2O)sc2ccccc21 (stereo not given in full)	19.2 µM (inactive)	18 µM (inactive)	17.8 µM (inactive)	17.6 µM (inactive)	15.1 µM (inactive)	12.8 µM (inactive)	21.1 µM (inactive)	14.8 µM (inactive)	13.2 µM (inactive)	20.1 µM (inactive)	17.9 µM (inactive)	15.5 µM (inactive)	14.9 µM (inactive)	15.6 µM (inactive)	18 µM (inactive)	16 µM (inactive)	17.3 µM (inactive)	15.4 µM (inactive)	18.5 µM (inactive)	17.9 µM (inactive)
CN(C)C(=S)/N=c1\ssc(=S)n1Cc1cccs1	4.99 µM (inactive)	2.07 µM (inactive)	3.64 µM (inactive)	0.39 µM (active)	4.06 µM (inactive)	6.05 µM (inactive)	11 µM (inactive)	2.1 µM (inactive)	3.01 µM (inactive)	8.51 µM (inactive)	6.9 µM (inactive)	5.45 µM (inactive)	1.04 µM (active)	3.11 µM (inactive)	3.83 µM (inactive)	1.52 µM (inactive)	8.41 µM (inactive)	26.2 µM (inactive)	8.24 µM (inactive)	0.658 µM (active)
CCCCOCCOC1=C(Cl)C(=O)c2c(O)ccc(O)c2C1=O	0.347 µM (active)	0.188 µM (active)	1.17 µM (inactive)	0.392 µM (active)	0.439 µM (active)	1.36 µM (inactive)	0.175 µM (active)	0.0356 µM (active)	0.217 µM (active)	0.532 µM (active)	0.465 µM (active)	1.6 µM (inactive)	0.733 µM (active)	0.407 µM (active)	0.229 µM (active)	0.687 µM (active)	0.562 µM (active)	2.94 µM (inactive)	0.578 µM (active)	0.325 µM (active)
CC1(C)OCC(C2OC(=O)C(OCc3ccccc3)=C2OCc2ccccc2)O1 (stereo not given)	50.4 µM (inactive)	51.8 µM (inactive)	81.8 µM (inactive)	23.3 µM (inactive)	31.2 µM (inactive)	55.3 µM (inactive)	35 µM (inactive)	27.4 µM (inactive)	45.5 µM (inactive)	28.8 µM (inactive)	39.4 µM (inactive)	83.2 µM (inactive)	17.2 µM (inactive)	45.2 µM (inactive)	45 µM (inactive)	49.9 µM (inactive)	65.6 µM (inactive)	37.6 µM (inactive)	44.3 µM (inactive)	26.9 µM (inactive)
Cn1c2ccccc2c2c3c(=O)[nH][nH]c(=O)c3c3c4ccccc4n(C)c3c21	> 100 µM (inactive)	> 100 µM (inactive)	> 96.6 µM (inactive)	1.09 µM (active)	> 100 µM (inactive)	> 100 µM (inactive)	> 100 µM (inactive)	58.5 µM (inactive)	> 84.5 µM (inactive)	0.284 µM (active)	> 100 µM (inactive)	> 100 µM (inactive)	> 100 µM (inactive)	> 100 µM (inactive)	> 100 µM (inactive)	> 100 µM (inactive)	> 100 µM (inactive)	> 100 µM (inactive)	> 100 µM (inactive)	> 100 µM (inactive)
Cc1cnc2c(c1)C(=O)C1=C(C2=O)C2OC(=O)CC2OC1(C)C (stereo not given)	0.29 µM (active)	0.0782 µM (active)	1.18 µM (inactive)	0.0525 µM (active)	0.193 µM (active)	1.16 µM (inactive)	0.185 µM (active)	0.0209 µM (active)	0.254 µM (active)	0.304 µM (active)	0.161 µM (active)	0.223 µM (active)	0.317 µM (active)	0.12 µM (active)	0.258 µM (active)	1.69 µM (inactive)	0.684 µM (active)	0.209 µM (active)	0.735 µM (active)	0.308 µM (active)
CC(=O)c1c(C)cn(S(=O)(=O)NC(=O)Nc2nncs2)c1C	> 100 µM (inactive)	> 100 µM (inactive)	> 100 µM (inactive)	> 100 µM (inactive)	> 100 µM (inactive)	> 100 µM (inactive)	> 100 µM (inactive)	> 100 µM (inactive)	> 100 µM (inactive)	> 100 µM (inactive)	> 100 µM (inactive)	> 100 µM (inactive)	> 100 µM (inactive)	> 100 µM (inactive)	> 100 µM (inactive)	> 100 µM (inactive)	> 100 µM (inactive)	> 100 µM (inactive)	> 100 µM (inactive)	> 100 µM (inactive)
CC1=C(C(=O)NNC(=O)c2ccccc2O)CC(C(=O)NNC(=O)c2ccccc2O)=C(C)N1	0.845 µM (active)	5.55 µM (inactive)	5.46 µM (inactive)	2.72 µM (inactive)	2.58 µM (inactive)	0.839 µM (active)	0.446 µM (active)	0.338 µM (active)	2.22 µM (inactive)	0.498 µM (active)	5.83 µM (inactive)	0.22 µM (active)	2.06 µM (inactive)	0.993 µM (active)	3.13 µM (inactive)	0.292 µM (active)	> 77.3 µM (inactive)	7.78 µM (inactive)	> 47.3 µM (inactive)	0.425 µM (active)
